Data: patent US4042683A, “Rifamycins P, Q and U” (Gruppo Lepetit S.p.A., priority 1974, dated 1977)
In brackets after ≈: the same amount, converted by molar mass. Where two headings read alike, the source gives them in different places.

Columns and labels:
[1] = test system: Staphylococcus aureus Tour; experiment: in vitro activity spectrum, minimal inhibition concentration, Staphylococcus aureus Tour; format: cell-based
Source text: (§1) | Minimal inhibiton concentration (μg/ml)

[2] = test system: Diplococcus pneumoniae UC 41; experiment: in vitro activity spectrum, minimal inhibition concentration, Diplococcus pneumoniae UC 41; format: cell-based
Source text: as §1

[3] = test system: Klebsiella pneumoniae ATCC 10031; experiment: in vitro activity spectrum, minimal inhibition concentration, Klebsiella pneumoniae ATCC 10031; format: cell-based
Source text: as §1

[4] = test system: Escherichia coli ATCC 10536; experiment: in vitro activity spectrum, minimal inhibition concentration, Escherichia coli ATCC 10536; format: cell-based
Source text: as §1

[5] = test system: Mycobacterium tub. H37Rv ATCC 9360; experiment: in vitro activity spectrum, minimal inhibition concentration, Mycobacterium tub. H37Rv ATCC 9360; format: cell-based
Source text: as §1

[6] = test system: Staphylococcus aureus ATCC 6538; experiment: in vitro activity spectrum, minimal inhibition concentration, Staphylococcus aureus ATCC 6538; format: cell-based; details: for MIC: Staphylococcus aureus, read-out: Minimal inhibiton concentration
Source text: as §1

[7] = test system: Pseudomonas aeruginosa ATCC 10145; experiment: in vitro activity spectrum, minimal inhibition concentration, Pseudomonas aeruginosa ATCC 10145; format: cell-based
Source text: as §1

[8] = test system: Streptococcus hemolyticus C 203; experiment: in vitro activity spectrum, minimal inhibition concentration, Streptococcus hemolyticus C 203; format: cell-based
Source text: as §1

[9] = test system: Streptococcus faecalis ATCC 10541; experiment: in vitro activity spectrum, minimal inhibition concentration, Streptococcus faecalis ATCC 10541; format: cell-based
Source text: as §1

[10] = test system: Staphylococcus aureus; experiment: experiments on mice injected with Staphylococcus aureus; format: in vivo
Source text: The novel compounds are active also in the laboratory animals injected with Staphylococcus aureus, Escherichia coli. The following table reports the results of representative experiments on mice in comparison with a known natural rifamycin, i.e. rifamycin SV.

[11] = test system: Proteus vulgaris X 19 H ATCC 881; experiment: in vitro activity spectrum, minimal inhibition concentration, Proteus vulgaris X 19 H ATCC 881; format: cell-based
Source text: as §1

[12] = test system: Staphylococcus aureus Tour rifampicin-resistant; experiment: in vitro activity spectrum, minimal inhibition concentration, Staphylococcus aureus Tour rifampicin-resistant
[13] = test system: Bacillus Subtilis; experiment: agar disc inhibition of growth of Bacillus subtilis; format: cell-based; details: Penassay agar pH 7.2, disc of agar carrying a single colony
Procedure: A suspension of spores of Streptomyces mediterranei ATCC 13685 was treated with N-methyl-N'-nitro-N-nitrosoguanidine at 1 mg/ml in a pH 9.0 tris(hydroxymethyl)aminomethane buffer for 60 minutes at 28° C. The mutagen-treated spores were then washed and plated onto Petri dishes containing Bennett agar. After 14 days incubation at 28° C., the surviving colonies were picked off and examined for their ability to inhibit the growth of Bacillus Subtilis in the following manner: a disc of agar (diameter 4-8 mm) carrying a single colony was transferred onto a Petri disch containing […] agar at pH 7.2 previously seeded at 2% (v/v) with Bacillus Subtilis. […] Three strains were isolated in this way and were originally given our internal code D-2, MM18-6 and M-36. Samples of these microorganisms were deposited with the ATCC where they are identified respectively as Nocardia mediterranea ATCC 31064 Nocardia mediterranea ATCC 31065 and Nocardia mediterranea ATCC 31066.

For `COC1/C=C\OC2(C)Oc3c(C)c(O)c4c(O)c(c5sc(CO)nc5c4c3C2=O)NC(=O)/C(C)=C/C=C/C(C)C(O)C(C)C(O)C(C)C(OC(C)=O)C1C` (stereo not drawn) [Rifamycin Q], which Minimal inhibiton concentration [1] is on record?
Its Minimal inhibiton concentration is 0.06 µg/mL (≈ 0.078 µM).

And the Minimal inhibiton concentration [2]?
Its Minimal inhibiton concentration is 0.039 µg/mL (≈ 0.0507 µM).

And the Minimal inhibiton concentration [3]?
The Minimal inhibiton concentration was 50 µg/mL (≈ 65 µM).

What about the Minimal inhibiton concentration [4] of the same compound?
The Minimal inhibiton concentration was 12.5 µg/mL (≈ 16.3 µM).

And the Minimal inhibiton concentration [5]?
Its Minimal inhibiton concentration is 2.5 µg/mL (≈ 3.25 µM).

What about the Minimal inhibiton concentration ([6]; Staphylococcus aureus ATCC 6538) of the same compound?
The Minimal inhibiton concentration was 0.039 µg/mL (≈ 0.0507 µM).

What about the Minimal inhibiton concentration ([6]; Staphylococcus aureus ATCC 6538 (20% bovine serum)) of the same compound?
The Minimal inhibiton concentration was 0.078 µg/mL (≈ 0.101 µM).

And the Minimal inhibiton concentration [7]?
The Minimal inhibiton concentration was 50 µg/mL (≈ 65 µM).

And the Minimal inhibiton concentration [8]?
The Minimal inhibiton concentration was 0.019 µg/mL (≈ 0.0247 µM).

What about the Minimal inhibiton concentration [9] of the same compound?
Its Minimal inhibiton concentration is 0.312 µg/mL (≈ 0.406 µM).

And the ED50 ([10]; s.c.)?
The ED50 was 8 mg/kg.

And the Minimal inhibiton concentration [11]?
Its Minimal inhibiton concentration is 12.5 µg/mL (≈ 16.3 µM).

And the Minimal inhibiton concentration ([12]; Staphylococcus aureus Tour rifampicin-resistant)?
The Minimal inhibiton concentration was over 100 µg/mL.

What does the source list for `COC1C=COC2(C)Oc3c(C)c(O)c4c(c3C2=O)C(=O)C=C(NC(=O)C(CO)=CC=CC(C)C(O)C(C)C(O)C(C)C(OC(C)=O)C1C)C4=O` (stereo not drawn) [Rifamycin R]?
MIC ([1]; read-out: Minimal inhibiton concentration): 0.00235 µg/mL (≈ 0.0033 µM); MIC ([2]; Streptococcus pneumoniae, UC41, read-out: Minimal inhibiton concentration): 0.00625 µg/mL (≈ 0.00878 µM); MIC ([4]; ATCC10536, read-out: Minimal inhibiton concentration): 50 µg/mL (≈ 70.2 µM); MIC ([5]; Mycobacterium tuberculosis, read-out: Minimal inhibiton concentration): 0.1 µg/mL (≈ 0.14 µM); MIC ([6]; ATCC6538, Staphylococcus aureus ATCC 6538 (20% bovine serum)): 0.0047 µg/mL (≈ 0.0066 µM); MIC ([6]; ATCC6538, Staphylococcus aureus ATCC 6538): 0.019 µg/mL (≈ 0.0267 µM); MIC ([7]; ATCC10145, read-out: Minimal inhibiton concentration): 100 µg/mL (≈ 140 µM); MIC ([8]; Streptococcus pyogenes, C203, read-out: Minimal inhibiton concentration): 0.00312 µg/mL (≈ 0.00438 µM); MIC ([9]; Enterococcus faecalis, ATCC10541, read-out: Minimal inhibiton concentration): 0.19 µg/mL (≈ 0.267 µM); MIC ([11]; ATCC881, read-out: Minimal inhibiton concentration): 12.5 µg/mL (≈ 17.6 µM); MIC ([12]; Staphylococcus aureus, read-out: Minimal inhibiton concentration): 100 µg/mL (≈ 140 µM)

`COC1C=COC2(C)Oc3c(C)c(O)c4c(O)c(cc(OCC(=O)O)c4c3C2=O)NC(=O)C(C)=CC=CC(C)C(O)C(C)C(O)C(C)C(OC(C)=O)C1C` (stereo not drawn) [rifamycin B] was tested. Which “inhibition of the growth of Bacillus subtilis” value [13] did it give?
The value was “practically inactive”.

Which results are given for `CO[C@H]1/C=C/O[C@@]2(C)Oc3c(C)c(O)c4c(O)c(cc(O)c4c3C2=O)NC(=O)/C(C)=C\C=C\[C@H](C)[C@H](O)[C@@H](C)[C@@H](O)[C@@H](C)[C@H](OC(C)=O)[C@@H]1C` [rifamycin SV]?
ED50 ([10]; po, o.s., read-out: ED50): 74 mg/kg; ED50 ([10]; sc, read-out: ED50): 17 mg/kg
